Key:
Format in all cases: in vivo
[1] = tested on: cotton aphids (Aphis gossypii); assay: Test Method 1: cotton aphid foliar spray, cucumber seedlings (Formulation Example 1); details: 500 ppm; spray 10 mL/seedling; 5 days after spraying; 25 °C
Protocol: (§1) Each test compound is formulated according to the method mentioned in Formulation Example 1 to obtain each formulation, and water containing 0.03% by volume of Shindaine (registered trademark) is added thereto to prepare a diluted solution containing a prescribed concentration of each test compound.
(§2) Approximately 30 cotton aphids (Aphis gossypii) (all stages of life) are released onto cucumber (Cucumis sativus) seedlings (on the developmental stage of the second true leaf) planted in a container. After 1 day, each of the diluted solutions is sprayed over the seedlings in a ratio of 10 mL/seedling. After additional 5 days, the number of the surviving insects is examined and the control value is calculated by the following equation.
(§3) Control value (%)={1−(Cb×Tai)/(Cai×Tb)}×100 • where symbols in the equation represent the following meanings: • Cb: Number of test insects in non-treated area; • Cai: Number of surviving insects at the time of the investigation in non-treated area; • Tb: Number of test insects in treated area; and • Tai: Number of surviving insects at the time of the investigation in treated area.
(§4) Here, the “non-treated area” represents an area where the same treatment procedure as that of the treated area is carried out except for not using each test compound.
The test was carried out by making the prescribed concentration 500 ppm and using the following present compounds as a test compound according to the test method 1.

[2] = tested on: common cutworm (Spodoptera litura); assay: Test Method 3: common cutworm on sprayed cabbage, 2nd instar larvae; details: 500 ppm, spray 20 mL/seedling, 5 days, 25 °C
Protocol: as §1
(§5) Each of the diluted solutions is sprayed over cabbage (Brassicae oleracea) seedlings (on the developmental stage of the second to third true leaf) planted in a container in a ratio of 20 mL/seedling. Thereafter, the stem and leaf of the seedlings are cut out, and placed in a container lined with a filter paper. Five 2nd instar larvae of common cutworm (Spodoptera litura) are released into the container. After 5 days, the number of the surviving insects is counted, and the mortality of insects is calculated by the following equation.
(§6) Mortality (%)=(1−Number of surviving insects/5)×100
The test was carried out by making the prescribed concentration 500 ppm and using the following present compounds as a test compound according to the test method 3.

[3] = tested on: diamondback moth (Plutella xylostella); assay: Test Example 4 (test method 4): diamondback moth on sprayed cabbage, 2nd instar larvae; details: 500 ppm, spray 20 mL/seedling, 5 days, 25 °C
Protocol: as §1
as §5, with “diamondback moth (Plutella xylostella)” for “common cutworm (Spodoptera litura)”
as §6
The test was carried out by making the prescribed concentration 500 ppm and using the following present compounds as a test compound according to the test method 4.

[4] = tested on: western corn rootworm (Diabrotica virgifera virgifera); assay: Test Method 5: western corn rootworm on immersed corn seedlings; details: 200 ppm; seedlings immersed 30 seconds; 2nd instar larvae; 5 days; 25 °C
Protocol: Each test compound is dissolved in 50 μL of a mixed solution of polyoxyethylene sorbitan monococoate and acetone (at a volume ratio of 5:95) per 1 mg of the test compound. Water containing 0.03% by volume of Shindaine (registered trademark) is added thereto to prepare a diluted solution containing a prescribed concentration of each test compound.
Young seedlings of corns (Zea mays) are immersed in each of the diluted solutions for 30 seconds. Thereafter, two seedlings are placed in a petri dish (diameter: 90 mm), and ten 2nd instar larvae of western corn rootworm (Diabrotica virgifera virgifera) are released into the dish. After 5 days, the number of the dead insects is counted, and the mortality of insects is calculated by the following equation.
Mortality (%)=(1−Number of dead insects/10)×100
The test was carried out by making the prescribed concentration 200 ppm and using the following present compounds as a test compound according to the test method 5.

[5] = tested on: German cockroach (Blattella germanica); assay: Test Method 6: German cockroach, coated container contact; details: coating amount 40 mg/m^2; male adults; 3 days; 25 °C
Protocol: An acetone solution prepared by making the concentration of the test compound 800 ppm is poured into a 50 mL container, and the inner face of the container is uniformly coated with the test compound so as to make the coating amount of 40 mg/m^2, followed by drying.
Five German cockroach (Blattella germanica) male adults are released into the container, and the container is then covered with a lid. After the prescribed time is elapsed, the state of the German cockroach are examined. The mortality of insects is calculated by the following equation.
(§7) Mortality (%)=(Number of dead insects/Number of tested insects)×100
The test was carried out by making the prescribed elapsed time 3 days and using the following present compounds as a test compound according to the test method 6.

[6] = tested on: houseflies (Musca domestica); assay: Test Method 8: housefly, coated container contact; details: coating amount 40 mg/m^2; adult males; 1 day; 25 °C
Protocol: An acetone solution prepared by making the concentration of the test compound 800 ppm is poured into a 20 mL container, and the inner face of the container is uniformly coated with the test compound so as to make the coating amount of 40 mg/m^2, followed by drying.
Five adult male houseflies (Musca domestica) are released into the container, and the container is then covered with a lid. After the prescribed time is elapsed, the state of the houseflies are examined. The mortality of insects is calculated by the following equation.
as §7
The test was carried out by making the prescribed elapsed time 1 day and using the following present compounds as a test compound according to the test method 8.

[7] = tested on: common cutworm (Spodoptera litura); assay: Test Method 9: common cutworm on sprayed cabbage, 3rd instar larvae (Formulation Example 5); details: 200 ppm, spray 20 mL/seedling, 6 days, 25 °C
Protocol: (§8) Each test compound is formulated according to the method mentioned in Formulation Example 5 to obtain each formulation, and water containing 0.03% by volume of Shindaine (registered trademark) is added thereto to prepare a diluted solution containing a prescribed concentration of each test compound.
as §5, with “third” for “second”, “fourth” for “third”, “ten 3rd” for “the stem and leaf of the seedlings are cut out, and placed in a container lined with a filter paper. Five 2nd”, “6” for “5”, “counted” for “counted,”
(§9) Mortality (%)=(1−Number of surviving insects/10)×100
The test was carried out by making the prescribed concentration 200 ppm and using the following present compounds as a test compound according to the test method 9.
The test is carried out by making the prescribed concentration 50 ppm and using the following present compounds as a test compound according to the test method 9. As a result of the test, it is possible to confirm an insecticidal effect on common cutworm (Spodoptera litura).

[8] = tested on: diamondback moth (Plutella xylostella); assay: Test Method 10: diamondback moth on sprayed cabbage, 3rd instar larvae (Formulation Example 5); details: spray 20 mL/seedling, 5 days, 25 °C
Protocol: as §8
Each of the diluted solutions is sprayed over cabbage (Brassicae oleracea) seedlings (on the developmental stage of the third to fourth true leaf) planted in a container in a ratio of 20 mL/seedling. Thereafter, ten 3rd instar larvae of diamondback moth (Plutella xylostella) are released into the container. After 5 days, the number of the surviving insects is counted, and the mortality of insects is calculated by the following equation.
as §9
The test was carried out by making the prescribed concentration 200 ppm and using the following present compounds as a test compound according to the test method 10.
The test was carried out by making the prescribed concentration 50 ppm and using the following present compounds as a test compound according to the test method 10.

[9] = tested on: cotton aphids (Aphis gossypii); assay: Test Method 11: cotton aphid foliar spray, cucumber seedlings (Formulation Example 5); details: spray 10 mL/seedling, 5 days after spraying, 25 °C
Protocol: as §8
as §2, with “thirty” for “30”
as §3, §4
The test was carried out by making the prescribed concentration 200 ppm and using the following present compounds as a test compound according to the test method 11.
The test was carried out by making the prescribed concentration 50 ppm and using the following present compounds as a test compound according to the test method 11.

[10] = tested on: common house mosquito (Culex pipiens pallens); assay: Test Method 12: common house mosquito larvae in diluted solution; details: 3.5 ppm; final instar larvae; 1 day; 25 °C
Protocol: Each test compound is formulated according to the method mentioned in Formulation Example 1 to obtain each formulation, and water is added thereto to prepare a diluted solution containing a prescribed concentration of each test compound. […]
The test was carried out by making the prescribed concentration 3.5 ppm and using the following present compounds as a test compound according to the test method 12.

Row | SMILES | control value [1] | mortality [2] | mortality [3] | mortality [4] | mortality of insects [5] | mortality of insects [6] | mortality [7] | mortality ([8]; 50 ppm) | mortality ([8]; 200 ppm) | control value ([9]; 50 ppm) | control value ([9]; 200 ppm) | mortality [10]
1 | CNS(=O)(=O)c1c(-c2cnc(OCC(F)(F)C(F)(F)F)cn2)nc2ccc(Br)cn12 [compound 1] | ≥ 90% | ≥ 80% | ≥ 80% | ≥ 80% | ≥ 80% | ≥ 80% | ≥ 80% | ≥ 80% | ≥ 80% | ≥ 90% | ≥ 90% | ≥ 90%
2 | CN(C)S(=O)(=O)c1c(-c2ccc(OCC(F)(F)C(F)F)nn2)nc2ccc(I)cn12 [compound 4] | ≥ 90% | ≥ 80% | ≥ 80% | – | – | – | ≥ 80% | ≥ 80% | ≥ 80% | – | – | –
3 | CCNS(=O)(=O)c1c(-c2cnc(OCC(F)(F)C(F)(F)F)cn2)nc2ccc(Br)cn12 [compound 2] | ≥ 90% | ≥ 80% | ≥ 80% | ≥ 80% | ≥ 80% | ≥ 80% | ≥ 80% | ≥ 80% | ≥ 80% | ≥ 90% | ≥ 90% | ≥ 90%

Source: US20260327222A1, “SULFONAMIDE COMPOUND AND HARMFUL-ARTHROPOD-CONTROLLING COMPOSITION CONTAINING SAME” (SUMITOMO CHEMICAL COMPANY, LIMITED, priority 2022, published 2026)
